The values below come from patent US9732087B2, “Diamino-pyridine, pyrimidine, and pyridazine modulators of the histamine H4 receptor” (JANSSEN PHARMACEUTICA NV, priority 2008, dated 2017).

Some results are limits rather than exact numbers.

human H4 receptor, sequence (Q9H3N8 whole entry): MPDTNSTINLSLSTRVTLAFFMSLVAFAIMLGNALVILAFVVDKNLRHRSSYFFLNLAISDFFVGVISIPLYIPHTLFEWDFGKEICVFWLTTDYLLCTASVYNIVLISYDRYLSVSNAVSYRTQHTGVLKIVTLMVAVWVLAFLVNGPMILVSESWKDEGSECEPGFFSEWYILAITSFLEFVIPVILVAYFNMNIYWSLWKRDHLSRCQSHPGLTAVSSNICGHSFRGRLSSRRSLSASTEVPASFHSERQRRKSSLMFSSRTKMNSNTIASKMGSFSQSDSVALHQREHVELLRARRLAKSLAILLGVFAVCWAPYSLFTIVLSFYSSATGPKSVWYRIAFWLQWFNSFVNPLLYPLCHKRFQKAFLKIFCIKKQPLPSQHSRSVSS

The assay has as its target human H4 receptor (Homo sapiens (Human), UniProt Q9H3N8). In words: Binding assay on recombinant human histamine H4 receptor ([3H]histamine competition, SK-N-MC cell membranes). Conditions: membranes harvested with cell harvester; [3H]histamine 10 nM; average of results; read-out: Cell Harvester Ki. In outline: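 Membranes from SK-N-MC cells stably or transiently transfected with human H4 receptor, prepared by homogenization and 30,000 g centrifugation in Tris/EDTA. Bound [3H]histamine separated by rapid filtration on PEI-treated GF/C filters, washed with ice-cold Tris/EDTA, counted by scintillation. '>' values denote highest concentration tested.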
A word on the Ki: it is a dissociation constant, usually derived from enzyme kinetics or from competition with a known ligand. `CN[C@@H]1CCN(c2ccnc(NCC3CC4CCC3C4)c2)C1` (stereo partly drawn) [Example 253, N-(Bicyclo[2.21]hept-2-ylmethyl)-4-[(3R)-3-(methylamino)pyrrolidin-1-yl]pyridin-2-amine]: the Ki turned out to be 4.33 nM. For `CCCCNc1cc(N2CC[C@@H](N)C2)ccn1` [Example 254, 4-[(3R)-3-Aminopyrrolidin-1-yl]-N-butylpyridin-2-amine] the value was 27.5 nM. For `CN1CCN(c2ccnc(NC[C@]34C[C@H]5C[C@H](C[C@H](C5)C3)C4)c2)CC1` [Example 255, Adamantan-1-ylmethyl-[4-(4-methyl-piperazin-1-yl)-pyridin-2-yl]amine] the value was 1940 nM; for `c1cc(N2C[C@H]3CCN[C@H]3C2)cc(NCC2CCCCC2)n1` [Example 256], 617 nM; for `N[C@H]1CCN(c2ccnc(NCc3ccccn3)c2)C1` [Example 258, 4-[(3S)-3-Aminopyrrolidin-1-yl]-N-(pyridin-2-ylmethyl)pyridin-2-amine], greater than 10000 nM. For `CNC1CN(c2ccnc(NC3CCCC3)c2)C1` [Example 259, N-Cyclopentyl-4-[3-(methylamino)azetidin-1-yl]pyridin-2-amine] the value was 5.15 nM. For the compound `c1ccc(CNc2cc(N3CCNCC3)ccn2)nc1` [Example 260, 4-Piperazin-1-yl-N-(pyridin-2-ylmethyl)pyridin-2-amine], the Ki is greater than 10000 nM.

Turning to `c1cc(N2C[C@H]3CCN[C@H]3C2)cc(NCC2CCCC2)n1` [Example 261, N-(Cyclopentylmethyl)-4-[(3aR,6aR)-hexahydropyrrolo[3,4-b]pyrrol-5(1H)-yl]pyridin-2-amine], the Ki was found to be 3560 nM. For `c1cc(N2C[C@H]3CCN[C@H]3C2)cc(NC2CCCC2)n1` [Example 262, N-Cyclopentyl-4-[(3aR,6aR)-hexahydropyrrolo[3,4-b]pyrrol-5(1H)-yl]pyridin-2-amine] the value was 22.1 nM; for `N[C@H]1CCN(c2ccnc(NCc3ccc(F)cc3)c2)C1` [Example 263], 3090 nM.

In the case of `COCCNc1cc(N2CC[C@H](N)C2)ccn1` [Example 264, 4-[(3S)-3-Aminopyrrolidin-1-yl]-N-(2-methoxyethyl)pyridin-2-amine], the inhibition constant (Ki) is greater than 10000 nM. As for `c1cc(N2CCCNCC2)cc(NC2CC3CCC2C3)n1` (centres unmarked) [Example 265, N-Bicyclo[2.2.1]hept-2-yl-4-(1,4-diazepan-1-yl)pyridin-2-amine], the figure is 1.71 nM. `c1cc(N2C[C@H]3CCN[C@H]3C2)cc(NC2C3CC4CC(C3)CC2C4)n1` (stereo partly drawn) [Example 266, Adamantan-2-yl-[4-(3aR,6aR)-(hexahydro-pyrrolo[3,4-b]pyrrol-5-yl)pyridin-2-yl]-amine]: the Ki stood at 14.5 nM. `N[C@H]1CCN(c2ccnc(NCc3ccccc3)c2)C1` [Example 267, 4-[(3S)-3-Aminopyrrolidin-1-yl]-N-benzylpyridin-2-amine]: the inhibition constant (Ki) was 1530 nM. As for `N[C@H]1CCN(c2ccnc(NC3CCCC3)c2)C1` [Example 268, 4-[(3S)-3-Aminopyrrolidin-1-yl]-N-cyclopentylpyridin-2-amine], the Ki was 247 nM.

For `CC1C(Nc2cc(N3CCNCC3)ccn2)C[C@H]2C[C@@H]1C2(C)C` (stereo partly drawn) [Example 269, 4-Piperazin-1-yl-N-[(1S,5R)-2,6,6-trimethylbicyclo[3.1.1]hept-3-yl]pyridine-2-amine], the Ki is 2100 nM. For `N[C@@H]1CCN(c2ccnc(NC3CC4CCC3C4)c2)C1` (stereo partly drawn) [Example 270, 4-[(3R)-3-Aminopyrrolidin-1-yl]-N-bicyclo[2.2.1]hept-2-ylpyridin-2-amine] the value was 3.53 nM; for `C[C@@H](Nc1cc(N2C[C@H]3CCN[C@H]3C2)ccn1)C1CCCCC1` [Example 271, N-[(1R)-1-Cyclohexylethyl]-4-[(3aR,6aR)-hexahydropyrrolo[3,4-b]pyrrol-5(1H)-yl]pyridin-2-amine], 189 nM. For `CC1C(Nc2cc(N3CC[C@H](N)C3)ccn2)C[C@H]2C[C@@H]1C2(C)C` (stereo partly drawn) [Example 272, 4-[(3S)-3-Aminopyrrolidin-1-yl]-N-[(1S,5R)-2.6.6-trimethylbicyclo[3.1.1]hept-3-yl]pyridin-2-amine], the Ki worked out at 2100 nM.

As for `CC(C)(O)CNc1cc(N2CC[C@H](N)C2)ccn1` [Example 273, 1-({4-[(3S)-3-Aminopyrrolidin-1-yl]pyridin-2-yl}amino)-2-methylpropan-2-ol], the Ki worked out at 3170 nM.

As for `N[C@@H]1CCN(c2ccnc(NC3CCCCC3)c2)C1` [Example 274, 4-[(3R)-3-Aminopyrrolidin-1-yl]-N-cyclohexylpyridin-2-amine], the Ki came out at 10.6 nM. For `CNC1CN(c2ccnc(NCC3CCCC3)c2)C1` [Example 275, N-(Cyclopentylmethyl)-4-[3-(methylamino)azetidin-1-yl]pyridin-2-amine] the value was 8.55 nM.

Consider `N[C@H]1CCN(c2ccnc(NCCc3ccccc3)c2)C1` [Example 276, 4-[(3S)-3-Aminopyrrolidin-1-yl]-N-(2-phenylethyl)pyridin-2-amine], for which the inhibition constant Ki came to 1640 nM. As for `c1cc(N2C[C@H]3CCN[C@H]3C2)cc(NC2CCOCC2)n1` [Example 277, 4-[(3aR,6aR)-Hexahydropyrrolo[3,4-b]pyrrol-5(1H)-yl]-N-(tetrahydro-2H-pyran-4-yl)pyridin-2-amine], the figure is 97 nM; as for `N[C@@H]1CCN(c2ccnc(NCC3CCCC3)c2)C1` [Example 278, 4-[(3R)-3-Aminopyrrolidin-1-yl]-N-(cyclopentylmethyl)pyridin-2-amine], 7.29 nM; as for `CC(C)(O)CNc1cc(N2CC[C@@H](N)C2)ccn1` [Example 279, 1-({4-[(3R)-3-Aminopyrrolidin-1-yl]pyridin-2-yl}amino)-2-methylpropan-2-ol], 276 nM.

For `CNC1CN(c2ccnc(NC(C)(C)C)c2)C1` [Example 280, N-tert-Butyl-4-[3-(methylamino)azetidin-1-yl]pyridin-2-amine], the inhibition constant (Ki) was 9.96 nM. For the compound `CNC1CN(c2ccnc(NC3CC3)c2)C1` [Example 281, N-Cyclopropyl-4-[3-(methylamino)azetidin-1-yl]pyridin-2-amine], the Ki is 21.3 nM. As to `CNC1CN(c2ccnc(NCC(C)(C)O)c2)C1` [Example 282, 2-Methyl-1-({4-[3-(methylamino)azetidin-1-yl]pyridin-2-yl}amino)propan-2-ol], the Ki came out at 173 nM. For `CNC1CN(c2ccnc(NCCCO)c2)C1` [Example 283, 3-({4-[3-(Methylamino)azetidin-1-yl]pyridin-2-yl}amino)propan-1-ol] the value was 162 nM; for `CNC1CN(c2ccnc(NC3C[C@H]4C[C@@H](C3C)C4(C)C)c2)C1` (stereo partly drawn) [Example 284, 4-[3-(Methylamino)azetidin-1-yl]-N-[(1S,5R)-2,6,6-trimethylbicyclo[3.1.1]hept-3-yl]pyridin-2-amine], 42.3 nM. As for `CNC1CN(c2ccnc(NCc3ccccc3)c2)C1` [Example 285, N-Benzyl-4-[3-(methylamino)azetidin-1-yl]pyridin-2-amine], the figure is 141 nM; as for `CNC1CN(c2ccnc(NCCOC)c2)C1` [Example 286, N-(2-Methoxyethyl)-4-[3-(methylamino)azetidin-1-yl]pyridin-2-amine], 88.3 nM. For `CC1C(Nc2cc(N3C[C@H]4CCN[C@H]4C3)ccn2)C[C@H]2C[C@@H]1C2(C)C` (stereo partly drawn) [Example 287, 4-[(3aR,6aR)-Hexahydropyrrolo[3,4-b]pyrrol-5(1H)-yl]-N-[(1S,5R)-2,6,6-trimethylbicyclo[3.1.1]hept-3-yl]pyridin-2-amine] the value was 98.9 nM; for `CC(C)(C)Nc1cc(N2C[C@H]3CCN[C@H]3C2)ccn1` [Example 288, N-tert-Butyl-4-[(3aR,6aR)-hexahydropyrrolo[3,4-b]pyrrol-5(1H)-yl]pyridin-2-amine], 39.5 nM. `COCCNc1cc(N2CC[C@@H](N)C2)ccn1` [Example 289, 4-[(3R)-3-Aminopyrrolidin-1-yl]-N-(2-methoxyethyl)pyridin-2-amine]: the inhibition constant (Ki) came to 410 nM.

Take `CC(C)(O)CNc1cc(N2CCNCC2)ccn1` [Example 290, 2-Methyl-1-[(4-piperazin-1-ylpyridin-2-yl)amino]propan-2-ol]: the inhibition constant Ki was determined as 1480 nM. As for `CC1(C)[C@H]2CC[C@H](CNc3cc(N4C[C@H]5CCN[C@H]5C4)ccn3)[C@@H]1C2` [Example 291, N-{[(1S,2S,5S)-6,6-Dimethylbicyclo[3.1.1]hept-2-yl]methyl}-4-[(3aR,6aR)-hexahydropyrrolo[3.4-b]pyrrol-5(1H)-yl]pyridin-2-amine], the figure is 239 nM.

Take `N[C@@H]1CCN(c2ccnc(NC3CCCC3)c2)C1` [Example 292, 4-[(3R)-3-Aminopyrrolidin-1-yl]-N-cyclopentylpyridin-2-amine]: the inhibition constant Ki turned out to be 7.01 nM. For `CC(C)(C)CNc1cc(N2C[C@H]3CCN[C@H]3C2)ccn1` [Example 293, N-(2,2-Dimethylpropyl)-4-[(3aR,6aR)-hexahydropyrrolo[3,4-b]pyrrol-5(1H)-yl]pyridin-2-amine], the Ki was determined as 60.9 nM. For `CNC1CN(c2ccnc(NCCc3ccccc3)c2)C1` [Example 294, 4-[3-(Methylamino)azetidin-1-yl]-N-(2-phenylethyl)pyridin-2-amine] the value was 103 nM. As for `CNC1CN(c2ccnc(NCc3ccc(F)cc3)c2)C1` [Example 295, N-(4-Fluorobenzyl)-4-[3-(methylamino)azeidin-1-yl]pyridin-2-amine], the figure is 163 nM; as for `c1cc(N2C[C@H]3CCN[C@H]3C2)cc(NC23CC4CC(CC(C4)C2)C3)n1` [Example 296, Adamantan-1-yl-[4-(3aR,6aR)-(hexahydro-pyrrolo[3,4-b]pyrrol-5-yl)-pyridin-2-yl]-amine], 64.2 nM; as for `CNC1CN(c2ccnc(NCc3ccccn3)c2)C1` [Example 297, 4-[3-(Methylamino)azetidin-1-yl]-N-(pyridin-2-ylmethyl)pyridin-2-amine], 1560 nM.
